The nature of the assay: Inhibition of Neuronal Nitric oxide synthase enzyme (nNOS).

A word on the Ki: it is the dissociation constant of the complex between target and ligand, obtained from inhibition or displacement. A high value points to lower affinity.

Where a SMILES comes first, the peptide text is derived from it. [ ]: non-standard residue; d: D form. The star is where a group is joined. dArg(NO2) = N=C(NCCC[C@@H](N)C(=O)O)N[N+](=O)[O-]; Arg(NO2) = N=C(NCCC[C@H](N)C(=O)O)N[N+](=O)[O-]; OBn = c1ccc(CO*)cc1

`NC(=NCCC[C@H](N)C(=O)N[C@@H](Cc1ccccc1)C(=O)O)N[N+](=O)[O-]` displayed a Ki of 18 µM.

In turn, `COC(=O)[C@H](Cc1ccccc1)NC(=O)[C@@H](N)CCCN=C(N)N[N+](=O)[O-]` showed a Ki of 290 µM.

In the case of `COC(=O)[C@@H](CCCN=C(N)N[N+](=O)[O-])NC(=O)[C@H](N)Cc1ccccc1`, the affinity, expressed as Ki, was 400 µM.

`COC(=O)[C@@H](Cc1ccccc1)NC(=O)[C@@H](N)CCCN=C(N)N[N+](=O)[O-]` had a Ki of 92 µM.

In turn, `NC(=NCCC[C@H](N)C(=O)N[C@@H](Cc1ccccc1)C(=O)OCc1ccccc1)N[N+](=O)[O-]` had a Ki of 55 µM. This Ki is about 1.7-fold lower than that of the compound before.

With `COC(=O)[C@H](CCCN=C(N)N[N+](=O)[O-])NC(=O)[C@@H](N)Cc1ccccc1`, the Ki was found to be 370 µM.

`COC(=O)[C@@H](CCCN=C(N)N[N+](=O)[O-])NC(=O)[C@@H](N)Cc1ccccc1`: the Ki is 90 µM.

Compound `NC(=NCCC[C@H](NC(=O)[C@@H](N)Cc1ccccc1)C(=O)OCc1ccccc1)N[N+](=O)[O-]` (H-Phe-[Arg(NO2)]-OBn) showed a Ki of 110 µM.

On to `N=C(NCCC[C@@H](NC(=O)[C@H](N)Cc1ccccc1)C(=O)O)N[N+](=O)[O-]` [(2R)-2-{[(2R)-2-amino-3-phenylpropanoyl]amino}-5-{[(Z)-imino(nitroamino)methyl]amino}pentanoic acid] (H-[dF]-[dArg(NO2)]-OH), for which the Ki was 17 µM.

In the case of `COC(=O)[C@@H](Cc1ccccc1)NC(=O)[C@H](N)CCCNC(=N)N[N+](=O)[O-]` [D-Nitroarginine,methoxy-D-phenylalanine,with 2M of hydrochloric acid], the affinity corresponds to a Ki of 150 µM.

Values taken from BindingDB's records for doi:10.1021/jm970200u (Northwestern University, 1997).
